Laboratory results as given in patent publication US4891450A, “Process for intermediates for insecticidal compounds” (Imperial Chemical Industries PLC, priority 1987, dated 1990).

Columns and labels:
Assay type in all cases: in vivo
[1] = tested on: Tetranychus urticae (spider mites - adult); experiment: Contact test, mortality of Tetranychus urticae adults on French bean leaf (TUa); conditions: 72 h, 3 days, read-out: grading of mortality, TuA
Method: (§1) The activity of the Product was determined using a variety of insect pests The Product was used in the form of liquid preparations containing from 100 to 500 parts per million (ppm) by weight of the Product. The preparations were made by dissolving the Product in acetone and diluting the solutions with water containing 0.1% by weight of a wetting agent sold under the trade name "SYNPERONIC" NX until the liquid preparations contained the required concentration of the Product "SYNPERONIC" is a Registered Trade Mark.
(§2) The test procedure adopted with regard to each pest was basically the same and comprised supporting a number of the pests on a medium which was usually a host plant or a foodstuff on which the pests feed, and treating either or both the pests and the medium with the preparations. The mortality of the pests was then assessed at periods usually varying from one to seven days after the treatment.
(§3) The results of the tests are given in Table III for each of the Products, at the rate in parts per million given in the second column as a grading of mortality designated as A, B or C wherein A indicates 80-100% mortality or knockdown, B indicates 50-79% mortality knockdown or knockdown and C indicates less than 50% mortality or knockdown.
(§4) In Table III the pest organism used is designated by a letter code and the pests species, the support medium or food, and the type and duration of test is given in Table II.

[2] = tested on: Myzus persicae (aphids); experiment: Contact test, mortality of Myzus persicae on Chinese Cabbage leaf (MP); conditions: 72 h, 3 days, read-out: grading of mortality, MP
Method: as §1, §2, §3, §4

[3] = tested on: Nilaparvata lugens (brown plant hopper - nymphs); experiment: Contact test, mortality of Nilaparvata lugens nymphs on Rice plant (NL); conditions: 72 h, 3 days, read-out: grading of mortality, NL
Method: as §1, §2, §3, §4

[4] = tested on: Musca domestica (houseflies - adults); experiment: Contact test, mortality of Musca domestica adults (MD); conditions: 24 h, 1 day, read-out: grading of mortality, MD
Method: as §1, §2, §3, §4

[5] = tested on: Blattela germanica (cockroach nymphs); experiment: Residual test, mortality of Blattela germanica nymphs (BG); conditions: 3 days
Method: as §1, §2, §3, §4

[6] = tested on: Heliothis virescens (tobacco budworm - larvae); experiment: whole plant or invertebrate; conditions: in Gossypium hirsutum, 72 h, read-out: grading of mortality, HV
Method: as §1, §2, §3, §4
(tobacco budworm - larvae)

[7] = tested on: Diabrotica balteata (rootworm larvae); experiment: Residual test, mortality of Diabrotica balteata larvae, Filter paper/maize seed (DB); conditions: 72 h, 3 days, read-out: grading of mortality, DB
Method: as §1, §2, §3, §4

[8] = tested on: Tetranychus urticae (spider mites - ova); experiment: Contact test, mortality of Tetranychus urticae ova on French bean leaf (TUe); conditions: 144 h, 6 days, read-out: grading of mortality, TuE
Method: as §1, §2, §3, §4

[9] = tested on: Spodoptera exigua (lesser army worm - larvae); experiment: Residual test, mortality of Spodoptera exigua larvae on Cotton leaf (SP); conditions: 72 h, 3 days, read-out: grading of mortality, SP
Method: as §1, §2, §3, §4
(lesser army worm - larvae)

Q: `CCOc1ccc(C(COCc2ccc(F)c(Oc3ccc(Cl)cc3)c2)C(F)(F)F)cc1` (racemic) [Compound 5, (RS)-1,1,1-trifluoro-2-(4-ethoxyphenyl)-3-[3-(4-chlorophenoxy)-4-fluorobenzyloxy]propane] was tested. Which mortality at 500 ppm [1] did it give?
A: 50 to 79%

Q: What about the mortality at 500 ppm [2] of the same compound?
A: 80 to 100%

Q: What about the mortality at 500 ppm [3] of the same compound?
A: 80 to 100%

Q: What about the mortality at 500 ppm [4] of the same compound?
A: 80 to 100%

Q: What about the “grading of mortality, BG” value ([5]; 500 ppm) of the same compound?
A: A (80-100% mortality or knockdown)

Q: And the mortality at 500 ppm [6]?
A: 80 to 100%

Q: What about the mortality at 500 ppm [7] of the same compound?
A: 80 to 100%

Q: Which results are given for `Fc1ccc(COCC(c2ccc(C(F)(F)F)cc2)C(F)(F)F)cc1Oc1ccccc1` (racemic) [Compound 38, (RS)-1,1,1-Trifluoro-2-(4-trifluoromethylphenyl)-3-(3-phenoxy-4-fluorobenzyloxy) propane]?
A: mortality at 500 ppm [1]: 80 to 100%; mortality at 500 ppm [8]: 80 to 100%; mortality at 500 ppm [2]: 80 to 100%; mortality at 500 ppm [3]: 80 to 100%; mortality at 500 ppm [4]: 80 to 100%; grading of mortality, BG ([5]; 500 ppm): A (80-100% mortality or knockdown); mortality at 500 ppm [6]: 80 to 100%; mortality at 500 ppm [9]: 80 to 100%; mortality at 500 ppm [7]: 80 to 100%

Q: With `CCOc1ccc(C(COCc2cccc(Oc3ccc(Cl)cc3)c2)C(F)(F)F)cc1` (racemic) [Compound 3, (RS)-1,1,1-trifluoro-2-(4-ethoxyphenyl)-3-[3-(4-chlorophenoxy)benzyloxy]propane] as the compound, how does the mortality at 250 ppm ([1]; 250 ppm) read?
A: < 50%

Q: What about the mortality at 250 ppm ([2]; 250 ppm) of the same compound?
A: 80 to 100%

Q: What about the mortality at 250 ppm ([3]; 250 ppm) of the same compound?
A: 80 to 100%

Q: And the mortality at 250 ppm ([4]; 250 ppm)?
A: 80 to 100%

Q: What about the “grading of mortality, BG” value ([5]; 250 ppm) of the same compound?
A: A (80-100% mortality or knockdown)

Q: What about the mortality at 250 ppm [6] of the same compound?
A: < 50%

Q: What about the mortality at 250 ppm ([7]; 250 ppm) of the same compound?
A: 80 to 100%

Q: `FC(F)(F)c1ccc(C(COCc2cccc(Oc3ccccc3)c2)C(F)(F)F)cc1` (racemic) [Compound 39, (RS)-1,1,1-Trifluoro-2-(4-trifluoromethylphenyl)-3-(3-phenoxybenzyloxy)propane] was tested. Which mortality at 500 ppm [1] did it give?
A: < 50%

Q: And the mortality at 500 ppm [8]?
A: 80 to 100%

Q: And the mortality at 500 ppm [2]?
A: 80 to 100%

Q: And the mortality at 500 ppm [3]?
A: 80 to 100%

Q: And the mortality at 500 ppm [4]?
A: 80 to 100%

Q: And the “grading of mortality, BG” value ([5]; 500 ppm)?
A: A (80-100% mortality or knockdown)

Q: What about the mortality at 500 ppm [6] of the same compound?
A: 80 to 100%

Q: And the mortality at 500 ppm [9]?
A: 80 to 100%

Q: What about the mortality at 500 ppm [7] of the same compound?
A: 80 to 100%

Q: `Fc1ccc(COCC(c2ccc(OC(F)(F)F)cc2)C(F)(F)F)cc1Oc1ccc(Cl)cc1` (racemic) [Compound 29, (RS)-1,1,1-Trifluoro-2-(4-trifluoromethoxyphenyl)-3-[3-(4-chlorophenoxy)-4-fluorobenzyloxy]propane] was tested. Which mortality at 500 ppm [1] did it give?
A: 80 to 100%

Q: What about the mortality at 500 ppm [8] of the same compound?
A: 80 to 100%

Q: What about the mortality at 500 ppm [2] of the same compound?
A: 80 to 100%

Q: What about the mortality at 500 ppm [3] of the same compound?
A: 80 to 100%

Q: What about the mortality at 500 ppm [4] of the same compound?
A: 80 to 100%

Q: And the “grading of mortality, BG” value ([5]; 500 ppm)?
A: A (80-100% mortality or knockdown)

Q: And the mortality at 500 ppm [6]?
A: 80 to 100%

Q: And the mortality at 500 ppm [9]?
A: 80 to 100%

Q: And the mortality at 500 ppm [7]?
A: 80 to 100%
